The source of these data is PubChem BioAssay (NCI).

Among the test systems are OVCAR-8 ovarian; RPMI-8226 leukemia; DLD-1 colon; DMS 114 small cell lung; SF-295 CNS; LOX IMVI melanoma; HOP-62 NSCLC; IGROV1 ovarian; HL-60(TB) leukemia; OVCAR-5 ovarian.
Holding throughout (test): DTP human tumour cell line panel, 48 h

Values joined by “and” are separate entries in the source; they are usually repeats but may differ in a detail not shown here. Equal entries are not always repeated.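 Tested at 5 concentrations; 48 h exposure; 96-well plates; endpoints linearly interpolated, else capped at highest concentration. Here, GI50 denotes the concentration required for 50% inhibition of growth. The concentration for full growth arrest is given as TGI.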

Consider `CCOc1ccc2[nH]c3c(C)c4cc[n+](C)cc4c(C)c3c2c1`, for which the concentration for 50% growth inhibition (GI50) in the experiment with OVCAR-8 ovarian is 0.236 µM and 0.51 µM; in the experiment with DMS 114 small cell lung it was 0.48 µM and 1.24 µM; in the experiment on LOX IMVI melanoma, 2.99 µM and 11.4 µM; in the experiment on HOP-62 NSCLC, 0.415 µM and 1.12 µM; in the experiment on OVCAR-5 ovarian, 10.3 µM and 38.8 µM. For the same compound, the TGI in the experiment with OVCAR-8 ovarian is 9.87 µM and 11.6 µM; in the experiment with RPMI-8226 leukemia, over 86.8 µM; in the experiment on DLD-1 colon, over 100 µM; in the experiment with DMS 114 small cell lung it was 2.74 µM and 4.7 µM; in the experiment on SF-295 CNS, 0.672 µM and 1.55 µM; in the experiment with LOX IMVI melanoma, 19.4 µM and > 67.1 µM. Besides, the TGI in the experiment on HOP-62 NSCLC is 4.76 µM and 6.01 µM; in the experiment with IGROV1 ovarian, 32 µM and > 44.7 µM; with HL-60(TB) leukemia, 29.9 µM and > 52.2 µM; with OVCAR-5 ovarian, over 100 µM.
Regarding `CN(C)C[C@H]1CC[C@@H](CN(C)C)C1=O`, the TGI in the experiment with OVCAR-8 ovarian was 17.1 µM; in the experiment with RPMI-8226 leukemia, over 12.9 µM; in the experiment with DLD-1 colon, 11.5 µM; in the experiment on DMS 114 small cell lung it was 17.5 µM; in the experiment with SF-295 CNS, over 50 µM; in the experiment on LOX IMVI melanoma it was 14.2 µM. Further, the TGI in the experiment with HOP-62 NSCLC was over 50 µM; in the experiment with IGROV1 ovarian, 31.6 µM; in the experiment with HL-60(TB) leukemia it was 4.1 µM; with OVCAR-5 ovarian, 16.3 µM. Also, the GI50 with RPMI-8226 leukemia was 1.17 µM.
Turning to `CCOC(=O)C1N(S(=O)(=O)c2ccc(C)cc2)CCC12c1ccccc1N(C(C)=O)C2C(/C=C/C(=O)OC)=C/C(=O)OC` (stereo unspecified), the TGI in the experiment on OVCAR-8 ovarian, in the experiment with RPMI-8226 leukemia, with DLD-1 colon, with DMS 114 small cell lung, with SF-295 CNS and in the experiment on LOX IMVI melanoma was over 100 µM throughout. Besides, the TGI in the experiment on HOP-62 NSCLC, in the experiment on IGROV1 ovarian, in the experiment on HL-60(TB) leukemia and in the experiment on OVCAR-5 ovarian was over 100 µM each time.
For `Cc1ccc2nc3c(C)c(Cl)c(=O)cc-3sc2c1`, the TGI in the experiment with OVCAR-8 ovarian is over 100 µM; with RPMI-8226 leukemia it was over 52.3 µM; in the experiment on DLD-1 colon, over 100 µM; with DMS 114 small cell lung it was 12.9 µM; in the experiment with SF-295 CNS it was 81.3 µM; with LOX IMVI melanoma it was 33.6 µM. For the same compound, the TGI in the experiment on HOP-62 NSCLC was 69.4 µM; in the experiment on IGROV1 ovarian it was over 100 µM; with HL-60(TB) leukemia it was 26.7 µM; with OVCAR-5 ovarian it was over 95.8 µM.
For the compound `CC1(O)C=CC2CCC1C2O` (stereo unspecified), the concentration for total growth inhibition (TGI) in the experiment with OVCAR-8 ovarian is over 100 µM; with RPMI-8226 leukemia, 53.5 µM; with DLD-1 colon, over 100 µM; with DMS 114 small cell lung, 32.1 µM; with SF-295 CNS, over 100 µM; in the experiment with LOX IMVI melanoma, 35.9 µM. The TGI in the experiment with HOP-62 NSCLC, in the experiment with IGROV1 ovarian, in the experiment on HL-60(TB) leukemia and with OVCAR-5 ovarian was over 100 µM in each case.
